The values below come from US20140005163A1 (NOVARTIS AG, priority 2010, published 2014).

The structures appear in SMILES notation.

The test system of test [1] is PKB Ser473 phosphorylation in Rat1-myr-HA-p110 alpha cells. Description: Reverse protein array assay, PKB Ser473 phosphorylation in Rat1-myr-p110 alpha cells. The format is cell-based. Particulars: 0.5 h, pAkt Ser473, 30 minutes compound incubation, read-out: p-PKB IC50. How it is done:
(§1) The Rat1-myr-HA-p110 alpha, beta and delta cells were trypsinized and counted with a CASY TT cell counter (Schärfe System GmbH, Reutlingen Germany). […] The plates were incubated at 37° C. and 5% CO2 under humidified condition for at least 20 h. Compound of formula I working solutions were prepared freshly as serial 8 step dilutions (vol/vol) in DMSO on the day of the experiment. […] The final DMSO concentration was kept constant at 0.2%. cell culture medium containing 0.2% DMSO was used as vehicle treatment control. Post incubation, the cells were treated with the serial compound dilution. 50 μl of the compound medium mixture was added to the wells containing cells and 150 μl DMEM medium and incubated for 30 minutes (37° C., 5% CO2). After 30 minutes of incubation, the medium mixture was quickly removed by aspiration. […] 50 μl of the described lysis buffer mix was added to each well, followed by 10 minutes of incubation on ice.
(§2) The samples were spotted onto ZeptoMARKt PWG protein microarray chips (Zeptosens, Witterswil, Switzerland) with the piezoelectric microdispense-based, non-contact Nano-Plotter 2.1 (GeSiM, Grosserkmannsdorf, Germany). Each sample was spotted at 4 different sample concentrations (d1=100%, d2=75%, d3=50%, d4=25%) by diluting the cell lysate with the corresponding volume of lysis buffer mix. After spotting the ZeptoMARK® protein microarrays, the chips are incubated for 1 hour at 37° C. […] After 20 minutes of blocking the chips are extensively rinsed with deionized water (Milli-Q quality, 18MΩ×cm) and dried in a nitrogen air flow.
(§3) After incubation, the arrays were washed twice with 200 μl CAB1 buffer. […] The fluorescence signal was assessed with exposure times of 1, 3, 5 and 10 seconds, depending on the intensity of the signal. The resulting four images taken per array are stored as 16-bit TIF files.
(§4) The fluorescence images for each array were analyzed with the ZeptoVIEW Pro 2.0 software (Zeptosens, Witterswil, Switzerland) and the relative fluorescence intensity for each signal was calculated.

The next test deals with T1, mTOR (Homo sapiens, UniProt P42345).
T1 construct: purchased Invitrogen Corporation (Carlsbad/CA, USA) PV4753
Description: Biochemical assay for m-TOR by TR-FRET. Particulars: 8 μM ATP, 400 nM GFP-4EBP1, 0.5 nM mTOR. As to the method:
Biochemical Assay for m-TOR by TR-FRET.
Assay components are purchased from Invitrogen Corporation (Carlsbad/CA, USA): GFP-4EBP1 (Cat. No. PV4759), Tb3+-α-p4EBP1 [pThr46] Antibody (Cat. No. PV4757), proprietary TR-FRET dilution buffer (Cat. No. PV3574), mTOR protein (Cat. No. PV4753).
Then 5 μL of ATP (8 μM final concentration) and GFP-4EBP1 (400 nM final concentration) with 5 μL mTOR proteins (0.5 nM final concentration) are incubated at rt. The standard reaction buffer for the TR-FRET mTOR assay contained 50 mM HEPES pH 7.5, 10 mM MnCl2, 50 mM NaCl, 1 mM EGTA, 1 mM DTT. Reactions were stopped with 10 μL of a mixture of EDTA containing the Tb3+-α-p4EBP1-[pT46] detection Ab (0.5 nM) in TR-FRET dilution buffer (proprietary to IVG). Plates are read 15 mins later in a Synergy2 reader using an integration time of 0.2 seconds and a delay of 0.1 seconds. […] A standard compound is used as a reference compound and included in all assay plates in the form of 16 dilution points in duplicate.
(In general: In TR-FRET formats the signal depends on donor and acceptor labels being close together.)

Test [2] deals with S6 Ribosomal Protein phosphorylation Ser235/236 in TSC1 null mouse embryo fibroblast (MEF) cells. The test is described as follows: Reverse protein array assay, S6 Ribosomal Protein phosphorylation Ser235/236 in TSC1 null MEF cells. The format is cell-based. As to conditions: 1 h, pS6 ribosomal protein Ser235/236, 60 minutes incubation, read-out: p-S6 IC50. As to the method: as §1, with “TSC1−/−” for “Rat1-myr-HA-p110 alpha, beta and delta”, “(Schirfe” for “(Schärfe”, “Working” for “Compound of formula I working”, “0.02%.” for “0.2%.”, “0.02%” for “0.2%”, “60” for “30”
The spotting of the chips follows the previous described method.

The test system of test [3] is PKB Ser473 phosphorylation in Rat1-myr-HA-p110 delta cells. Description: Reverse protein array assay, PKB Ser473 phosphorylation in Rat1-myr-p110 delta cells. The format is cell-based. Particulars: read-out: p-PKB IC50. How it is done: as §1, §2, §3, §4
Test [4] has as its system PKB Ser473 phosphorylation in Rat1-myr-HA-p110 beta cells. The test is described as follows: Reverse protein array assay, PKB Ser473 phosphorylation in Rat1-myr-p110 beta cells. The format is cell-based. As to conditions: 0.5 h, pAkt Ser473, 30 minutes incubation, read-out: p-PKB IC50. How it is done: as §1, §2, §3, §4

T1 sequence (P42345 1360-2549 limits assumed): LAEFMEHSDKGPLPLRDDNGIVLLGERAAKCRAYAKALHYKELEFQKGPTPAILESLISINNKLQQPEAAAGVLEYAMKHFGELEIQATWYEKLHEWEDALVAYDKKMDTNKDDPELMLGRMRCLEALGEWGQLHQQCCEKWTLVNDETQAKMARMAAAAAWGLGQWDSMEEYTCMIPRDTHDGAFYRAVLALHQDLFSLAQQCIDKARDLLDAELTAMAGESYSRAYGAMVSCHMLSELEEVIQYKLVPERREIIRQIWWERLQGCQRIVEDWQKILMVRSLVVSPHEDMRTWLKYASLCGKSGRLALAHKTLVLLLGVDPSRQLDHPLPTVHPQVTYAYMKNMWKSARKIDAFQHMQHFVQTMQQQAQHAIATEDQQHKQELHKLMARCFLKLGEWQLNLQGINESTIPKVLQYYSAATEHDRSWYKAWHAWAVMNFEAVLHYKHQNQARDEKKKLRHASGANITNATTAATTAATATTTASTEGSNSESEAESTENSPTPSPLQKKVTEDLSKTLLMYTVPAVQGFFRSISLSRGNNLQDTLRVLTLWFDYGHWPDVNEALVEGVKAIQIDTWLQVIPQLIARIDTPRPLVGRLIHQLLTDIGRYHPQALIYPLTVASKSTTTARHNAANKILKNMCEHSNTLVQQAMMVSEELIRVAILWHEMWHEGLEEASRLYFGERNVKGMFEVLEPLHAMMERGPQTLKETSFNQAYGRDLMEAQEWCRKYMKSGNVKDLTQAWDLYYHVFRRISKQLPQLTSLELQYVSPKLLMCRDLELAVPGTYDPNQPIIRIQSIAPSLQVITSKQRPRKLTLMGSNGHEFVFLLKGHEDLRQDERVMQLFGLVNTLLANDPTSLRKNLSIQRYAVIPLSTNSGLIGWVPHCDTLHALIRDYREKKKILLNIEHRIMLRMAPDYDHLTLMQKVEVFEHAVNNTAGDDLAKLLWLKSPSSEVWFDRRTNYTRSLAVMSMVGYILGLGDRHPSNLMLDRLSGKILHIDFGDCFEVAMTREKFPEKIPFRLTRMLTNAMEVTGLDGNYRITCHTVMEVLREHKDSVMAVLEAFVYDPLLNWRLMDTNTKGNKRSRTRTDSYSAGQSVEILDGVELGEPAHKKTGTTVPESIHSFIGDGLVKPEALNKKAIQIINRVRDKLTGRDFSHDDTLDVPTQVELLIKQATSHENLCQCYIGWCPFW

Take `CCn1cc(-n2c(=O)n(C)c3cnc4ccc(-c5ccc(-n6cccn6)cc5)cc4c32)c(C)n1` [Example 51.3, 1-(1-Ethyl-3-methyl-1H-pyrazol-4-yl)-3-methyl-8-(4-pyrazol-1-yl-phenyl)-1,3-dihydro-imidazo[4,5-c]quinolin-2-one]: the concentration for half-maximal inhibition (IC50) (in general, the point on the concentration scale where inhibition reaches its midpoint) in test [1] turned out to be 8 nM; at mTOR, 6 nM; in test [2], 2 nM; in test [3] it was 15 nM; in test [4], 9 nM.

For the compound `CNc1ncc(-c2ccc3ncc4c(c3c2)n(-c2cn(C)nc2C)c(=O)n4C)cn1` [Example 80.1, 1-(1,3-Dimethyl-1H-pyrazol-4-yl)-3-methyl-8-(2-methylamino-pyrimidin-5-yl)-1,3-dihydro-imidazo[4,5-c]quinolin-2-one], the IC50 in test [1] worked out at 13 nM; on mTOR, 13 nM; in test [2] it was 3 nM; in test [3], 5 nM; in test [4], 13 nM.

Turning to `CCNc1cc(-c2ccc3ncc4c(c3c2)n(-c2c(C)noc2C)c(=O)n4C)cnc1Cl` [Example 153.3, 8-(6-Chloro-5-ethylamino-pyridin-3-yl)-1-(3,5-dimethyl-isoxazol-4-yl)-3-methyl-1,3-dihydro-imidazo[4,5-c]quinolin-2-one], the IC50 in test [1] was 34 nM; on mTOR it was 665 nM; in test [2], 36 nM; in test [3], 112 nM; in test [4], 55 nM.

Turning to `COCc1ncc(-c2ccc3ncc4c(c3c2)n(-c2cn(C)nc2Cl)c(=O)n4C)cc1OC` [Example 195.4, 1-(3-Chloro-1-methyl-1H-pyrazol-4-yl)-8-(5-methoxy-6-methoxymethyl-pyridin-3-yl)-3-methyl-1,3-dihydro-imidazo[4,5-c]quinolin-2-one], the half-maximal inhibitory concentration (IC50) in test [1] is 20 nM; on mTOR, 8 nM; in test [2] it was 2 nM; in test [3], 21 nM; in test [4] it was 23 nM.

In the case of `COc1cc(-c2ccc3ncc4c(c3c2)n(-c2cn(C)nc2C)c(=O)n4C)cnc1OC` [Example 204, 8-(5,6-Dimethoxy-pyridin-3-yl)-1-(1,3-dimethyl-1H-pyrazol-4-yl)-3-methyl-1,3-dihydro-imidazo[4,5-c]quinolin-2-one], the half-maximal inhibitory concentration (IC50) in test [1] is 8 nM; in test [2] it was less than 0.5 nM; in test [3], 9 nM; in test [4], 12 nM.

Turning to `CCC(O)(CC)c1cncc(-c2ccc3ncc4c(c3c2)n(-c2cn(C)nc2C)c(=O)n4C)c1` [Example 216, 1-(1,3-Dimethyl-1H-pyrazol-4-yl)-8-[5-(1-ethyl-1-hydroxy-propyl)-pyridin-3-yl]-3-methyl-1,3-dihydro-imidazo[4,5-c]quinolin-2-one], the concentration for half-maximal inhibition (IC50) in test [1] is 10 nM; at mTOR it was 4 nM; in test [2], less than 0.5 nM; in test [3], 56 nM; in test [4], 57 nM.

Regarding `Cc1nn(CC(=O)N2CCCC2)cc1-n1c(=O)n(C)c2cnc3ccc(-c4cnc(N5CCCC5)nc4)cc3c21` [Example 247.4, 3-Methyl-1-[3-methyl-1-(2-oxo-2-pyrrolidin-1-yl-ethyl)-1H-pyrazol-4-yl)-8-(2-pyrrolidin-1-yl-pyrimidin-5-yl)-1,3-dihydro-imidazo[4,5-c]quinolin-2-one], the half-maximal inhibitory concentration (IC50) in test [1] turned out to be 44 nM; on mTOR it was 34 nM; in test [2], 4 nM; in test [3] it was 106 nM; in test [4], 41 nM.
